The record followed here is patent US20240350660A1, “Compositions and Methods for Increasing Bioavailability Using Cyclodextrin Modification” (priority 2021, published 2024).

The subject of assay [1] is mouse model of diabetes (streptozotocin-induced). In words: Streptozotocin-induced diabetes mouse model, blood glucose 4 hours post treatment. In kind it is in vivo, mice (C57BL/6). As for the experimental part:
Eight week old male C57BL/6 strain of mice were used. The mice were fed on standard diet and water ad libitum. Diabetes was induced by intraperitoneal injection of 60 mg/kg of a freshly prepared streptozotocin (STZ) dissolved in 0.1 M cold citrate buffer at a pH of 4.5. Body weight, food, and fluid intake were monitored daily. Induction was continued for 7 consecutive days until chronic polydipsia and polyuria was established. Post-prandial blood glucose levels were measured by blood glucose strips, and mice with levels higher than 400 mg/dL were defined as chronically diabetic and chosen for experiments. Test animals were treated with product by oral gavage. For a given product, n=6 animals were treated. Blood samples for whole blood glucose were obtained from the tail tip 4 hours post treatment, and blood glucose levels were measured by Roche blood glucose strips. Means and standard error of the means were calculated. Differences in mean post-prandial blood glucose 4 hours post treatment of animals treated with product and untreated control […] diabetic animals (n=6) were calculated. Relative clinical effects of the products tested were determined by comparing the difference in blood glucose of treated relative to untreated controls.

The subject of assay [2] is SARS-COV-2. In words: Human ACE2 transgenic COVID-19 mouse model (body weight, survival). The class given is in vivo, hACE2 transgenic mice. The conditions noted are these: Daily.
Assay [3] deals with SARS-COV-2. As to the kind of experiment: SARS-COV-2 replication in Vero E6 cells in vitro (viral load by RT-PCR). The class given is cell-based. The conditions noted are these: Severe acute respiratory syndrome coronavirus 2, Vero C1008; FIG. 3; cells treated at 1 μM final concentration; complexes at 1:1 molar ratio; read-out: Inhibition of SARS-COV-2 replication over untreated.

The mark [4] stands for this setting: 25 mg/kg oral gavage, n=6, glucose levels given in mg/dL.
The mark [5] stands for this setting: 200 mg/kg, Pretreatment to Day 7.

For `OC[C@H]1O[C@@H]2O[C@H]3[C@H](O)[C@@H](O)[C@@H](O[C@H]4[C@H](O)[C@@H](O)[C@@H](O[C@H]5[C@H](O)[C@@H](O)[C@@H](O[C@H]6[C@H](O)[C@@H](O)[C@@H](O[C@H]7[C@H](O)[C@@H](O)[C@@H](O[C@H]8[C@H](O)[C@@H](O)[C@@H](O[C@H]1[C@H](O)[C@H]2O)O[C@@H]8CO)O[C@@H]7CO)O[C@@H]6CO)O[C@@H]5CO)O[C@@H]4CO)O[C@@H]3CO` [Betacyclodextrin alone, beta-cyclodextrin], in assay [1] (setting [4]), the “Difference in 4 h Blood Glucose vs. Untreated” value (“Difference” for short) was determined as 35.46. Take `Cc1cnc(C(=O)NCCc2ccc(S(=O)(=O)NC(=O)NC3CCCCC3)cc2)cn1` [Glipizide]: the “Difference” value in assay [1] (5 mg/kg oral gavage, n=6) is on record as 198.0. For `CN(C)C(=N)N=C(N)N` [Metformin], the “Difference” value in assay [1] (200 mg/kg oral) amounted to 173.9; in assay [1] (250 mg/kg oral gavage, n=6), 181.7.

As for `O=c1c(O)c(-c2ccc(O)c(O)c2)oc2cc(O)cc(O)c12` [Quercitin], the Survival in the assay on SARS-COV-2 [2] (66 mg/kg, Pretreatment to Day 7) came to 80%; in the assay with SARS-COV-2 [2] (setting [5]), 100%. On to `CCC(CC)COC(=O)[C@H](C)N[P@](=O)(OC[C@H]1O[C@@](C#N)(c2ccc3c(N)ncnn23)[C@H](O)[C@@H]1O)Oc1ccccc1` [Remdesivir], for which the Survival in the assay with SARS-COV-2 [2] (50 mg/kg, Day 1 post-treatment to 7) amounted to 100%; in the assay with SARS-COV-2 [2] (setting [5]) it was 100%. Take `COc1cc(/C=C/C(=O)CC(=O)/C=C/c2ccc(O)c(OC)c2)ccc1O` [Unconjugated Curcumin, curcumin]: the “Difference” value in assay [1] (5 mg/kg oral gavage, n=6) is recorded as 29.8; in assay [1] (setting [4]), 60.22. Take `C[C@@H]1O[C@@H](OC[C@H]2O[C@@H](Oc3c(-c4ccc(O)c(O)c4)oc4cc(O)cc(O)c4c3=O)[C@H](O)[C@@H](O)[C@@H]2O)[C@H](O)[C@H](O)[C@H]1O` [rutin]: the inhibition at 1 µM with SARS-COV-2 [3] was about 25%. With Insulin, the “Difference” value in assay [1] (0.5 IU sc) is listed as 203.2; in assay [1] (1 IU sc), 236.2.
